Assay results from PubChem BioAssay (NCI).
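A five-concentration, 48-hour dose response in 96-well plates underlies each endpoint, interpolated linearly between surrounding concentrations. Definition used: TGI = concentration required for complete inhibition of growth.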

Experiments:
Experiment in all cases: growth of human tumour cells (NCI), 48 h
BT-549 breast = test system: BT-549 breast
CCRF-CEM leukemia = test system: CCRF-CEM leukemia
COLO 205 colon = test system: COLO 205 colon
DU-145 prostate = test system: DU-145 prostate
EKVX NSCLC = test system: EKVX NSCLC
HCC-2998 colon = test system: HCC-2998 colon
HCT-116 colon = test system: HCT-116 colon
HL-60(TB) leukemia = test system: HL-60(TB) leukemia
MCF7 breast = test system: MCF7 breast
NCI-H23 lung = test system: NCI-H23 lung
NCI-H522 lung = test system: NCI-H522 lung
NCI/ADR-RES ovarian = test system: NCI/ADR-RES ovarian
SF-268 CNS = test system: SF-268 CNS
SK-MEL-2 melanoma = test system: SK-MEL-2 melanoma
SK-MEL-5 melanoma = test system: SK-MEL-5 melanoma
UO-31 renal = test system: UO-31 renal
IGROV1 ovarian = test system: IGROV1 ovarian
MDA-MB-231 breast = test system: MDA-MB-231 breast
NCI-H226 lung = test system: NCI-H226 lung
SN12C renal = test system: SN12C renal

SMILES | TGI (BT-549 breast) [µM] | TGI (CCRF-CEM leukemia) [µM] | TGI (COLO 205 colon) [µM] | TGI (DU-145 prostate) [µM] | TGI (EKVX NSCLC) [µM] | TGI (HCC-2998 colon) [µM] | TGI (HCT-116 colon) [µM] | TGI (HL-60(TB) leukemia) [µM] | TGI (MCF7 breast) [µM] | TGI (NCI-H23 lung) [µM] | TGI (NCI-H522 lung) [µM] | TGI (NCI/ADR-RES ovarian) [µM] | TGI (SF-268 CNS) [µM] | TGI (SK-MEL-2 melanoma) [µM] | TGI (SK-MEL-5 melanoma) [µM] | TGI (UO-31 renal) [µM] | TGI (IGROV1 ovarian) [µM] | TGI (MDA-MB-231 breast) [µM] | TGI (NCI-H226 lung) [µM] | TGI (SN12C renal) [µM]
O=C(/C=C/c1ccc(O)c(O)c1)NCCc1ccc(-c2ccccc2)cc1 | > 100 | > 100 | > 100 | > 100 | > 100 | > 100 | > 100 | > 100 | > 100 | > 100 | > 100 | > 100 | > 100 | > 100 | > 100 | > 100 |  |  |  | 
O=C(Nn1cnn2c(=O)c3ccccc3nc2c1=O)c1ccccc1 | > 100 | > 100 | > 100 | > 100 | > 100 | > 100 | > 100 | > 100 | > 100 | > 100 | > 100 |  | > 100 | > 100 | > 100 | > 100 | > 100 | > 100 | > 100 | > 100
CCN(CC)C(=S)SS(=O)(=O)c1ccccc1[N+](=O)[O-] | > 80.6 | > 100 | > 100 | > 66.5 | > 100 | > 100 | > 59.1 | > 44.8 |  | 99 | 2.83 | 97.5 | > 100 | > 100 | 24.8 | 31.2 | > 100 | 37.3 | > 93.8 | 56.6
COc1ccc(C[C@H](N)C(=O)N2C[C@@H](CO)C[C@@H](n3cnc4c(N(C)C)ncnc43)C2)cc1 |  | > 100 |  |  | > 100 |  | > 100 | > 100 |  | > 100 | > 100 |  | > 100 | > 100 | > 100 | > 100 | > 100 |  |  | 
Cn1c(=O)oc2cc(Br)ccc21 |  | > 100 | > 100 | > 100 | > 100 | > 100 | > 100 | > 100 | > 100 | > 100 | > 100 | > 100 | > 100 | > 100 | > 100 | > 100 | > 100 | > 100 | > 100 | > 100
CC(O[Si](c1ccccc1)(c1ccccc1)C(C)(C)C)[C@H](NC(=O)OC(C)(C)C)C(=O)O (stereo not given in full) |  | > 100 | 46.1 |  | > 100 | > 100 | > 100 | 59.8 | > 100 | > 100 |  | > 100 | > 100 |  | 50.8 | > 100 | 50.2 |  |  | 
Nc1c(N2CCCCC2)c(=O)nc2[nH]/c(=C\c3ccccc3)c(=O)n12 |  | > 100 | > 100 | > 100 | > 100 | > 100 | > 100 | > 100 | > 100 | > 100 | > 100 | > 100 | > 100 |  | > 100 | > 100 | > 100 | > 100 | > 100 | > 100
Cc1ccc(-c2cc(-c3c(C)nn(C)c(=O)c3N)[nH]n2)cc1 |  | > 100 | > 100 | > 100 | > 100 | > 100 | > 100 | > 100 | > 100 | > 100 |  | > 100 | > 100 | > 100 | > 100 |  | > 100 | > 100 | > 100 | > 100
O=C(O)c1ccc(Nc2nc3cc(C(F)(F)F)ccc3nc2-c2ccccc2)cc1 | > 100 | > 100 | 37.9 | 95.5 | 92 | 34.4 | 84.5 | > 100 |  | > 100 | 32.8 | 70.2 | > 100 |  | > 100 | 36.9 | 35.9 | > 100 | 69.6 | 97.6
Oc1cc(CN2COc3ccccc32)c(O)cc1CNC1CCCCC1 | 90.9 | > 100 | 31.2 | > 100 | 36.3 |  | 35.3 |  | 42.7 | 64.5 | 27.8 | > 100 | 33.6 | 50 | 35.2 | > 100 | > 100 | 41.8 |  | > 100
CC(=O)O[C@@H]1O[Si](C(C)(C)C)(C(C)(C)C)[C@H](C)[C@H]1C | > 100 | > 100 | > 100 |  | > 100 | > 100 | > 100 | 44 | 83 | > 100 | > 100 | > 100 |  | > 100 | > 100 | > 100 | > 100 | > 100 | > 100 | > 100
CC1=NN(C(=O)c2ccc(Cl)cc2)C(=O)/C1=C/c1ccco1 |  | > 100 | > 100 |  | > 100 | > 100 | > 100 | > 100 |  | > 100 | > 100 |  | > 100 | > 100 | > 100 | > 100 | > 100 |  |  | > 100
Cc1c2c(ccc3ccccc32)c[n+]2ccccc12 |  | 36.5 | 33.7 |  |  | 26 | > 100 | 68.5 |  | 22.5 | 18.8 |  | 11.3 | 33.7 | 16 | > 100 |  |  | 35.1 | 
COc1ccc2nc3n(c2c1)C(c1c(Cl)cccc1Cl)SC3 (stereo not given) | > 100 | > 100 | > 100 | > 100 | > 100 | > 100 | > 100 | > 100 | > 100 | > 100 |  | > 100 |  | > 100 | > 100 | > 100 | > 100 |  | > 100 | > 100
CC(=O)Oc1c2oc3cc(O)c(O)cc3c2c(OC(C)=O)c2oc3cc(O)c(O)cc3c12 | 31.1 | > 100 | 33.5 |  | 40.1 | 40.7 | 38.2 | 13 |  | 7.38 | 35.8 | 86.7 | 51 | 42.1 | 38.3 | 42 | 91.1 |  | 39.2 | 58.6
O=C1/C(=C/c2cccs2)NC(=S)N1CN1CCCC(CO)C1 (stereo not given) |  | > 100 | > 100 | > 100 | > 100 |  | > 100 |  | > 100 | > 100 |  | > 100 | > 100 | > 100 | > 100 | > 100 | > 100 | > 100 | > 100 | > 100
COC(=O)c1cc(C)n(CN(Cc2ccccc2)Cn2nc(C(=O)OC)cc2C)n1 | > 100 | > 67.6 | > 78.1 | > 100 | > 100 |  | > 59.8 |  | > 100 | > 100 | > 100 | > 100 | > 100 | > 100 | > 100 | > 92.1 | > 100 | > 100 | > 100 | > 100
CCOC(=O)N1[C@@H]2CCC[C@@H]2C(=O)[C@@H]2CCC[C@@H]21 | > 100 | > 100 | > 100 | > 100 |  | > 100 | > 100 | > 100 |  | > 100 |  | > 100 | > 100 | > 100 | > 100 |  | > 100 | > 100 | > 100 | > 100
CCOC(=O)c1[nH]c2nc(SC)nc(Nc3ccccc3Cl)c2c1N | 82.1 | 46.8 | > 100 | 95.7 |  | > 100 | > 100 |  |  | 60.5 | 53.4 | 73.3 | 60.9 | > 100 | 32.7 | 42.7 | 86.2 | 59.3 | 70.2 | > 100
O=C(O)CCC(NC(=O)c1ccc(CNc2nc3ccccc3nc2C(=O)O)cc1)C(=O)O (stereo not given) |  | > 100 | > 100 | > 100 | > 100 |  | > 100 |  | > 100 | > 100 |  | > 100 | > 100 | > 100 | > 100 | > 100 | > 100 | > 100 | > 100 | > 100
CN(C)c1ccc(C2ON=C(c3ccccc3)N2C23CC4CC(CC(C4)C2)C3)cc1 (stereo not given) | > 10 | > 10 | > 10 | > 10 | > 10 | > 10 | > 10 | > 10 |  | > 10 | > 10 | > 10 | > 10 | > 10 | > 10 |  | > 10 | > 10 | > 10 | > 10
O=C1C2ON3c4ccccc4C(=O)C3(c3ccccc3)C2C(=O)N1c1ccccc1 (stereo not given) |  | > 100 | > 100 |  | > 100 | > 100 | > 100 | > 100 |  | > 100 | > 100 |  | > 100 |  | > 100 | > 100 | > 100 |  | > 100 | > 100
